According to US9834548B2, “Pyridazine compounds as JAK inhibitors” (Portola Pharmaceuticals, Inc., priority 2014, dated 2017):
Where two headings read alike, the source gives them in different places.

Tests used:
JAK1 = JAK1 (Homo sapiens (Human), UniProt P23458); assay: Purified kinase assay (Z'-LYTE), JAK1; format: biochemical
Method in brief: (§1)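 Catalytic-domain recombinant kinase with Tyr6 peptide (a separate Tyr6 kit for TYK2) and ATP, 1% DMSO final, reacted 1 h at room temperature. Z′-LYTE FRET read after 1 h protease development (ex 400, em 445/520 nm). Inhibition computed from percent substrate phosphorylation versus no inhibitor; IC50 from 4-parameter logistic fit.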

JAK2 = JAK2 (Homo sapiens (Human), UniProt O60674); assay: Purified kinase assay (Z'-LYTE), JAK2; format: biochemical
Sequence of JAK2 (O60674 849-1124): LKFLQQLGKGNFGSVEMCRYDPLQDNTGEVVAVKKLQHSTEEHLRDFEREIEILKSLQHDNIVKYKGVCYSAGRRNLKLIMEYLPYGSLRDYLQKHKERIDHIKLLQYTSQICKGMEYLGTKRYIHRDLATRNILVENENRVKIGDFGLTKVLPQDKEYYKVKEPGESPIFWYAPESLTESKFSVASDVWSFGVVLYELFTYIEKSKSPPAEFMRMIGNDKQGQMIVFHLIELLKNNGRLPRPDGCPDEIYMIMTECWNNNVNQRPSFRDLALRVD
Method in brief: as §1

JAK3 = JAK3 (Homo sapiens (Human), UniProt P52333); assay: Purified kinase assay (Z'-LYTE), JAK3; format: biochemical
Sequence of JAK3 (P52333 822-1111): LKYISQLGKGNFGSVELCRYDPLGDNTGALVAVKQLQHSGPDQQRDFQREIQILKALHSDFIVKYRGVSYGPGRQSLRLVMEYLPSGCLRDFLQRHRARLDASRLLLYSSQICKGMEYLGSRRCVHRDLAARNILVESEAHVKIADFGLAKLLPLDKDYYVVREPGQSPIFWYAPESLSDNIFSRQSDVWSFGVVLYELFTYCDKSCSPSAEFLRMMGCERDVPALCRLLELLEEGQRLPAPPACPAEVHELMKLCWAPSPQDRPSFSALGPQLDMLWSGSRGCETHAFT
Method in brief: as §1

TYK2 = TYK2 (Homo sapiens (Human), UniProt P29597); assay: Purified kinase assay (Z'-LYTE), TYK2; format: biochemical
Sequence of TYK2 (P29597 897-1176): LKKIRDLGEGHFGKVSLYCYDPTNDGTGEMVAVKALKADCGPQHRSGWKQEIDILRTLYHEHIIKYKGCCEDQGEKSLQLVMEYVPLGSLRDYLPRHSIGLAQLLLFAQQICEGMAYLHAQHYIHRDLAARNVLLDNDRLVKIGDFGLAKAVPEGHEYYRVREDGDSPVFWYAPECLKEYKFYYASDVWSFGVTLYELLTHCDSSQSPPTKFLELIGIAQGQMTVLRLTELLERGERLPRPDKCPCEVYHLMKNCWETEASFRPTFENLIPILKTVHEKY
Procedure: JAK and TYK2 tyrosine phosphorylation activity is measured using the Z′-LYTE™ Technology developed by Invitrogen Corporation (Carlsbad, Calif.). For JAK1, JAK2 and JAK3 the Z′-LYTE™ Kinase Assay Kit-Tyr6 Peptide (part number PV4122) was used. For TYK2 the Z′-LYTE™ Kinase Assay Kit-Tyr6 Peptide (part number PV3192) was used. The Z′-LYTE™ biochemical assay employs a fluorescence resonance energy transfer (FRET) coupled-enzyme format and is based on the differential sensitivity of phosphorylated and non-phosphorylated peptides to proteolytic cleavage. The assay uses a synthetic peptide substrate that is labeled with a donor fluorophore (coumarin) and an acceptor fluorophore (fluorescein) that make up a FRET pair. In the primary reaction (the Kinase Reaction), the kinase transfers the γ-phosphate of ATP to a single tyrosine residue on the substrate, while the presence of a kinase inhibitor in the primary reaction suppresses phosphorylation. In the secondary reaction (the Development Reaction), a site-specific protease (the Development Reagent) is added. The development buffer quenches the Kinase Reaction, while the protease recognizes and cleaves non-phosphorylated Z′-LYTE™ peptide substrate. Cleavage disrupts FRET between the donor and acceptor fluorophores on the non-phosphorylated substrate, while uncleaved, phosphorylated substrate maintains FRET.
To test the ability of candidate molecules to inhibit JAK tyrosine phosphorylation activity, molecules are reconstituted in 100% DMSO and serially diluted 1:10 in polypropylene v-bottom microtiter plates. The candidate molecules are then diluted 1:25 into kinase buffer and 2.5 μl transferred into duplicate wells of a 384 well low volume black microtiter assay plate (Corning, USA). The final DMSO concentration in the assay is 1%. The kinase reaction contains 2.5 μl of a candidate molecule, 5 μl of catalytic domain recombinant Kinase enzyme+Tyr peptide substrate (Invitrogen, CA) and ATP (Invitrogen, CA). The kinase reaction is allowed to proceed for 1 hour at room temperature. The protease reaction is initiated by the addition of Development Reagent (Invitrogen, CA). After 1 hour incubation at room temperature the fluorescence is measured using a FlexStation plate reader (Molecular Devices, Sunnyvale, Calif.). The reader settings used are as follows: Fluorescence mode, endpoint, top read, excitation 400 nm, emission 445 nm and 520 nm, Auto Cutoff 435 nm and 515 nm, PMT sensitivity high, 6 reads per well Inhibition of JAK activity is calculated as the percent phosphorylation of substrate in the presence of inhibitor compared to the percent phosphorylation of substrate in the absence of inhibitor. IC50's were derived using Xlfit 4.3 (IDBS, UK), 4 parameter logistic model 205: Y=(A+((B−A)/(1+((C/x)^D)))).

[1] = test system: JAK3/JAK1 (IL2-STAT5 in PBMC); assay: Intracellular STAT5 phosphorylation following IL2 stimulation of PBMC (JAK3/JAK1 cellular assay); format: cell-based; settings: Homo sapiens, read-out: IL2-STAT5 percent inhibition of STAT phosphorylation
Procedure: Human whole blood was collected into lithium heparin vacutainer tubes from the antecubital vein of human subjects. Peripheral blood mononuclear cells (PBMC) were prepared by layering 10 ml anti-coagulated blood over 5 ml lymphoprep in a 15 ml conical tube and centrifugation for 20 minutes at 400×g in a swinging bucket rotor. The lymphocyte layer was removed, washed twice in tissue culture media (RPMI containing 10% fetal bovine serum) prior to re-suspension in the same media at 2×10^6 cells/ml. 100 μl aliquots of PMBCs were incubated for 1 h at 37° C. with various concentrations of JAK inhibitors prior to stimulation for 15 minutes with 1.5 ng/ml of IL2 or IL4. The reaction was terminated by the addition of 60 μl 16% paraformaldehyde, followed by incubation at room temperature for 10 minutes. Fixed cells were washed twice in PBS, and then re-suspended in −20° C. 50% methanol diluted in PBS and stored at 4° C. overnight. Following permeabilization of the cell membrane in methanol, cells were washed twice in PBS containing 1% BSA and PBMCs were re-suspended in the same buffer containing CD3 and STAT5 Y694 specific antibodies (IL2 stimulations) or CD3, CD14, CD19, and STAT6 Y641 specific antibodies (IL4 stimulations) for 1 hour at room temperature. Cells were then washed and re-suspended in PBS/BSA buffer and assessed by flow cytometry (LSRII; BD Biosciences) for effect of JAK inhibitors on cytokine mediated STAT phosphorylation.
(§2) Percent inhibition of STAT phosphorylation in the cellular assays is provided for the compounds at the given concentrations.

[2] = test system: JAK2 (GM-CSF-induced pSTAT5 in TF1 cells); assay: GMCSF-induced pSTAT5 formation in TF1 (JAK2 cellular assay); format: cell-based; settings: Homo sapiens, TF-1, read-out: TF1/GM-CSF percent inhibition of STAT phosphorylation
Procedure: 100 μl aliquots of TFI (2.5×10^6/ml) cells were pre-treated with various concentrations JAK inhibitors (0.04 to 5 μM, including 0.2 μM and 1 μM) for 1 hour at 37° C. Cells were then stimulated with 2 ng/ml GM-CSF for 10 minutes at 37° C. The reaction was terminated by the addition of 60 μl 16% paraformaldehyde followed by incubation for 10 minutes at room temperature. Cells were washed twice (centrifugation 5 minutes room temperature at 385×g) in PBS followed by re-suspension in −20° C. 50% methanol in PBS and storage at 4° C. overnight. The following day, cells were washed in PBS/BSA and re-suspended in the same buffer containing STAT5 Y694 specific antibody. Following incubation with antibodies, cells were washed and analyzed by flow cytometry (BD Biosciences; FACS Calibur). The gate was set on live cells in the SSC-FSC plot and 10,000 events were collected.
as §2

Sequence of JAK1 (P23458 875-1153): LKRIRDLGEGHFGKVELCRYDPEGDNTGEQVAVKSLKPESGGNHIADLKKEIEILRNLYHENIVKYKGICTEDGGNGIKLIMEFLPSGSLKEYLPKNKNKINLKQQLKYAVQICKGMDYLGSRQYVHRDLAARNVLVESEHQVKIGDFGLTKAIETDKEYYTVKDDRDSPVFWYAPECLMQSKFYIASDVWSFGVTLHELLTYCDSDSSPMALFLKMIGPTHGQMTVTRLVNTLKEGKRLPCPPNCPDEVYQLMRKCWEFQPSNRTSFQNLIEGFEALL

Row | Compound | IC50 (JAK1; Table 1, read-out: JAK1 IC50) | IC50 (JAK1; Table 2, read-out: JAK1) | IC50 (JAK2; Table 1, read-out: JAK2 IC50) | IC50 (JAK2; Table 2, read-out: JAK2) | IC50 (JAK3; Table 1, read-out: JAK3 IC50) | IC50 (JAK3; Table 2, read-out: JAK3) | IC50 (TYK2; Table 1, read-out: Tyk2 IC50) | IC50 (TYK2; Table 2, read-out: TYK2) | inhibition at 0.2 µM [1] | inhibition at 1 µM [1] | inhibition at 0.1 µM [2] | inhibition at 1 µM [2]
1 | CC(=O)N1CCN(c2ccc(Nc3cc(NCc4cc(F)cc(F)c4)c(C(N)=O)nn3)cc2)CC1 [Compound 20] | 0.1 to 1 µM | > 1 µM | 0.01 to 0.1 µM | 0.1 to 1 µM | 0.001 to 0.01 µM | 0.001 to 0.01 µM | 0.1 to 1 µM | 0.1 to 1 µM | 32% | 60% | 3% | 2%
2 | CCC(=O)N1CCN(c2ccc(Nc3cc(NCc4c(F)cccc4F)c(C(N)=O)nn3)cc2)CC1 [Compound 33] | 0.1 to 1 µM | 0.1 to 1 µM | 0.01 to 0.1 µM | 0.01 to 0.1 µM | 0.001 to 0.01 µM | 0.001 to 0.01 µM | 0.01 to 0.1 µM | 0.01 to 0.1 µM | 31% | 53% | 0% | 17%
3 | CC(=O)N1CCN(c2ccc(Nc3cc(NCc4cccc5ccsc45)c(C(N)=O)nn3)cc2)CC1 [Compound 98] | 0.1 to 1 µM | > 1 µM | 0.01 to 0.1 µM | 0.01 to 0.1 µM | 0.001 to 0.01 µM | 0.001 to 0.01 µM | > 1 µM | > 1 µM | 13% | 64% | – | –
4 | CC(=O)N1CCN(c2ccc(Nc3cc(NCc4cccc5[nH]ccc45)c(C(N)=O)nn3)cc2)CC1 [Compound 109] | 0.01 to 0.1 µM | 0.01 to 0.1 µM | 0.01 to 0.1 µM | 0.01 to 0.1 µM | < 0.001 µM | 0.001 to 0.01 µM | – | – | 69% | 95% | – | –
